Experimental data from patent US20090163451A1, “METHODS FOR TREATING VISCERAL PAIN” (priority 2007, published 2009).
“Also recorded” adds a separate entry of the source.

What was measured:
[1] = system: rats with experimental pancreatitis (DBTC), referred abdominal hypersensitivity; test: experimental pancreatitis model (IV DBTC): referred abdominal hypersensitivity, withdrawals to von Frey filament; type: in vivo, Sprague Dawley rats; settings: DBTC rats; for effect of concurrent RVM antagonist on the effect of RVM sumatriptan: sumatriptan 10 μg RVM; for effect of concurrent RVM antagonist on the effect of RVM sumatriptan / effect of RVM antagonist on the effect of systemic sumatriptan: antagonist 3 μg RVM
Description: (§1) Adult male Sprague Dawley rats (Harlan, Indianapolis, Ind.), weighing 150-200 g, were maintained in a climate-controlled room with ad lib food and water on a 12 hour/12 hour light/dark cycle (lights on at 07:00 hours). All procedures followed the policies of the International Association for the Study of Pain and the NIH guidelines for the handling and use of laboratory animals. Studies were approved by the University of Arizona IACUC.
(§2) Dibutyltin dichloride (DBTC) was obtained from Sigma-Aldrich (Milwaukee, Wis.) and dissolved in 100% ethanol to a concentration of 8 mg/kg (Sparmann et al., Gastroenterology. 112:1664-1672 (1997))). Sumatriptan succinate was obtained from Toronto Research Chemicals (ON, Canada) and dissolved in saline to 1, 3, and 10 μg for RVM microinjections and 100, 200, and 300 μg/kg for systemic injections (Kayser et al., Br J Pharmacol. 137:1287-1297 (2002)). The 5HT1B antagonist isamoltane and the 5HT1D antagonist BRL15722 were obtained from Tocris (Elllisville, Mo.). Isamoltane was dissolved in saline to a concentration of 3 μg for RVM microinjection and to a concentration of 4 mg/kg (Ottani et al., Eur J Pharmacol. 497:181-186 (2004)) for system application. BRL15722 was dissolved in 10% DMSO to a concentration of 3 μg for RVM microinjection and to a concentration of 0.3 mg/kg (Ottani et al., Eur J Pharmacol. 497:181-186 (2004)) for systemic application.
For the experiments involving microinjection of drugs into the RVM, rats underwent surgeries to implant RVM cannulae. After five days of recovery, rats received either intravenous injection of DBTC to induce pancreatitis, or intracolonic injection of sodium butyrate to induce colonic hypersensitivity. Animals were monitored for development of visceral hypersensitivity on the subsequent days. On day six after either induction of pancreatitis or colonic hypersensitivity, animals underwent baseline behavioral measurements. […] For experiments investigating the effects of serotonin antagonists, the drugs were microinjected concurrently with injection of sumatriptan and animals were monitored for the subsequent two h. Separate groups of animals were microinjected with the antagonists alone to control for possible effects of the drugs by themselves.
For the experiments involving systemic drug administration, rats received intravenous injection of DBTC to induce pancreatitis or intracolonic injection of sodium butyrate to induce colonic hypersensitivity. On day six after either induction of pancreatitis of colonic hypersensitivity, animals underwent baseline behavioral measurements. […] Separate groups of animals were injected with the antagonists alone. Additionally, separate groups of animals were injected with sumatriptan systemically and microinjected with the antagonists in the RVM to determine if the RVM is a site of action for systemically applied sumatriptan. The microinjection of antagonists into the RVM was done immediately following the systemic injection of sumatriptan. All animals were tested for behavioral signs of hypersensitivity every 20 min for two h after the end of the injections.
Pancreatitis was produced by a tail vein injection of dibutyltin dichloride (DBTC, Aldrich, Milwaukee, Wis., 0.25 cc) dissolved in 100% ethanol at a dose of 8 mg/kg under isofluorane anesthesia (2-3 liters/min, 4.0%/vol until anesthetized, then 2.5%/vol throughout the procedure; Vera-Portocarrero et al., Gastroenterology. 130:2155-2164 (2006)). Control animals were injected with the vehicle solution only (100% ethanol, 0.25 mL).
Referred abdominal hypersensitivity in the pancreatitis model was quantified by measuring the number of withdrawal events evoked by application of a calibrated von Frey filament (determined by either abdominal withdrawal, licking of the abdominal area, or whole body withdrawal). Rats were placed inside Plexiglas boxes on an elevated fine fiberglass screen mesh and acclimated for 30 minutes before testing. […]

[2] = system: rats with experimental colonic hypersensitivity (butyrate), referred lumbar hypersensitivity; test: colonic hypersensitivity model (intracolonic sodium butyrate): referred lumbar hypersensitivity, von Frey mechanical threshold; type: in vivo, Sprague Dawley rats; settings: butyrate rats; for effect of concurrent RVM antagonist on the effect of RVM sumatriptan: sumatriptan 10 μg RVM; for effect of concurrent systemic (IP) antagonist on the effect of systemic sumatriptan: isamoltane 4 mg/kg IP or BRL15722 0.3 mg/kg IP
Description: as §1, §2
For the experiments involving microinjection of drugs into the RVM, rats underwent surgeries to implant RVM cannulae. After five days of recovery, rats received either intravenous injection of DBTC to induce pancreatitis, or intracolonic injection of sodium butyrate to induce colonic hypersensitivity. Animals were monitored for development of visceral hypersensitivity on the subsequent days. On day six after either induction of pancreatitis or colonic hypersensitivity, animals underwent baseline behavioral measurements. Sumatriptan was microinjected into the RVM at different doses (separate groups of rats for each dose) and animals were monitored behaviorally for two h after sumatriptan application in the RVM. For experiments investigating the effects of serotonin antagonists, the drugs were microinjected concurrently with injection of sumatriptan and animals were monitored for the subsequent two h. Separate groups of animals were microinjected with the antagonists alone to control for possible effects of the drugs by themselves.
For the experiments involving systemic drug administration, rats received intravenous injection of DBTC to induce pancreatitis or intracolonic injection of sodium butyrate to induce colonic hypersensitivity. On day six after either induction of pancreatitis of colonic hypersensitivity, animals underwent baseline behavioral measurements. Sumatriptan was injected intraperitoneally at different doses (separate groups of rats for each dose) and the animals were monitored behaviorally every 20 min for two h after injection. For experiments investigating the effects of serotonin antagonists, the drugs were injected intraperitoneally immediately following the injection of sumatriptan (separate groups for each respective antagonist). Separate groups of animals were injected with the antagonists alone. Additionally, separate groups of animals were injected with sumatriptan systemically and microinjected with the antagonists in the RVM to determine if the RVM is a site of action for systemically applied sumatriptan. The microinjection of antagonists into the RVM was done immediately following the systemic injection of sumatriptan. All animals were tested for behavioral signs of hypersensitivity every 20 min for two h after the end of the injections.
Colonic hypersensitivity was induced by enemas of a sodium butyrate solution ([…]) twice daily for 3 days (Bourdu et al., Gastroenterology. 128:1996-2008 (2005)). […]

[3] = system: spinal neurons, colorectal distention (CRD); settings: microinjection into the RVM (Zhuo et al.); cited from earlier work
[4] = system: referred visceral hypersensitivity induced by pancreatic inflammation; settings: microinjection into the RVM (Vera-Portocarrero et al. 2006); cited from earlier work
[5] = sumatriptan 300 μg/kg IP, listed as BRL1 5722

## OC(CN1CCN(c2cccc(Cl)c2)CC1)C(c1ccccc1)c1ccccc1 (stereo not drawn) [BRL15722]
[1]
  effect of concurrent RVM antagonist on the effect of RVM sumatriptan: did not block the effect of RVM sumatriptan
[1]; listed as BRL1 5722
  effect of concurrent RVM antagonist on the effect of RVM sumatriptan: did not have any effect
[1]; sumatriptan 300 μg/kg IP
  effect of RVM antagonist on the effect of systemic sumatriptan: did not block the effect of sumatriptan
[1]; [5]
  effect of RVM antagonist on the effect of systemic sumatriptan: failed to antagonize the effects of systemic sumatriptan
[1]; sumatriptan 300 μg/kg IP, isamoltane 4 mg/kg IP or BRL15722 0.3 mg/kg IP
  effect of concurrent systemic (IP) antagonist on the effect of systemic sumatriptan: reduced the effects of systemic sumatriptan; also recorded: blocked the effect of sumatriptan
[2]; antagonist 3 μg RVM
  effect of concurrent RVM antagonist on the effect of RVM sumatriptan: did not block the effect of RVM sumatriptan
[2]; antagonist 3 μg RVM, listed as BRL1 5722
  effect of concurrent RVM antagonist on the effect of RVM sumatriptan: did not have any effect
[2]; sumatriptan 300 μg/kg IP, antagonist 3 μg RVM
  effect of RVM antagonist on the effect of systemic sumatriptan: failed to antagonize the effects of systemic sumatriptan; also recorded: did not block the effect of systemic sumatriptan
[2]; sumatriptan 300 μg/kg IP
  effect of concurrent systemic (IP) antagonist on the effect of systemic sumatriptan: blocked the effect of systemic sumatriptan
[2]; [5]
  effect of concurrent systemic (IP) antagonist on the effect of systemic sumatriptan: reduced the effects of systemic sumatriptan

## CCN(CC)CC(=O)Nc1c(C)cccc1C [lidocaine]
[3]
  spontaneous activity and responses of spinal neurons to colorectal distention: reduced spontaneous activity and responses of spinal neurons to colorectal distention; also recorded: reduced spontaneous activity and responses of spinal neurons to CRD
[4]
  referred visceral hypersensitivity induced by pancreatic inflammation: attenuated referred visceral hypersensitivity
